The values that follow come from BindingDB's records for doi:10.1021/jm500569h (Georgetown University, 2014).

A short description of the first assay: Antagonist activity at ER in human MCF7:WS8 cells assessed as inhibition of estradiol-induced cell growth by measuring DNA level after 7 days by fluorescence analysis.
For `CNCCOc1ccc(C2=C(c3ccccc3)CCCc3cc(O)ccc32)cc1`, the IC50 (as a rule, the concentration at which inhibition is half-maximal) was 3 nM.

Turning to `CCOc1ccc2c(c1)CCCC(c1ccccc1)=C2c1ccc(OCCN(C)C)cc1`, the IC50 came out at 3 nM.

A further assay is described as follows: Agonist activity at ER in human MCF7:WS8 cells assessed as increase in cell growth by measuring DNA level after 7 days by fluorescence analysis.
For the compound `COc1ccc2c(c1)CCCC(c1ccccc1)=C2c1ccc(O)cc1`, the EC50 (as a rule, the concentration at which the effect is half-maximal) was determined as 4 nM.

For `CCOc1ccc(C2=C(c3ccccc3)CCCc3cc(O)ccc32)cc1`, the EC50 is 0.3 nM.

Turning to `CCOc1ccc2c(c1)CCCC(c1ccccc1)=C2c1ccc(O)cc1`, the EC50 turned out to be 2.7 nM.

Consider `COc1ccc(C2=C(c3ccccc3)CCCc3cc(O)ccc32)cc1`, for which the EC50 is 0.3 nM.

`CN(C)CCOc1ccc2c(c1)CCCC(c1ccccc1)=C2c1ccc(O)cc1`: the half-maximal effective concentration (EC50) was determined as 15 nM.

For the compound `CNCCOc1ccc2c(c1)CCCC(c1ccccc1)=C2c1ccc(O)cc1`, the EC50 turned out to be 20 nM.

With `CCC(=C(c1ccc(O)cc1)c1ccc(O)cc1)c1ccc(O)cc1`, the EC50 was 0.15 nM.

As for `CCC(=C(c1ccc(O)cc1)c1ccc(O)cc1)c1ccccc1` [1,1-bis(4,4'-hydroxyphenyl)-2-phenylbut-1-ene], the EC50 was determined as 0.015 nM.
